Legend:
INS-1E cells = assay: Cytokine-induced apoptosis (caspase-3/7 activation, Caspase-Glo 3/7) in INS-1E rat insulinoma cells; type: cell-based; settings: cytokine mix (IFN-γ, IL-1, TNF-α), 24 hours, caspase 3/7 activity, read-out: CYT EC50
Text: The INS-1E cell line, a rat insulinoma cell line, has been characterized extensively. INS-1E cells respond to glucose by secreting insulin and, unlike most other immortalized n-cell lines, they do this in a consistent manner over time. The cells are sensitive to hyperglycemia-, free fatty acid (FFA)-, and cytokine-induced stress. Prolonged stress ultimately leads to induction of apoptotic pathways and, if stress is not counter-acted, to apoptosis. Caspase-3 and -7 play a central role downstream where various apoptotic pathways merge. As such, activation (i.e. cleavage) of these caspases forms a relevant primary read-out to evaluate protective activity of compounds against stress-induced apoptosis.
To evaluate the efficacy of different compounds to prevent induction of apoptosis, an in vitro screen was developed in which INS-1E cells were exposed to a cytokine mix (IFN-γ, 5 ng/ml; IL-1, 20 pg/ml; TNF-α, 0.25 ng/ml). The degree of induction of apoptosis was evaluated using a substrate for cleaved caspase-3 and -7, i.e. a proluminescent caspase-3/7 DEVD aminoluciferin substrate with a thermostable luciferase (Caspase-Glo® 3/7 assay; Promega, cat. G8092).
On day 0, INS-1E cells were plated in a white-walled 96-well microplate (Greiner, cat. 655098) at 20,000 cells per well in 100 μl complete medium (RPMI containing 11 mM glucose supplemented with 5% FCS, 100 IU/ml penicillin, 100 μg/ml streptomycin, 10 mM HEPES, 1 mM Sodium Pyruvate and 50 μM 2-Mercapto-ethanol). On day 2, 100 μl medium containing cytokines and compound dissolved in DMSO was added to the cells. Wells without cytokines containing DMSO and wells with cytokines and DMSO were included to evaluate the degree of caspase 3/7 activation by the cytokine mix. After 24 hours exposure to cytokines and/or compound, Caspase-Glo® 3/7 reagent was added to the cells and caspase activity was determined by measuring luminescence.
To evaluate compound efficacy, the “toxicity window” was calculated by subtracting caspase activity of wells without stressor from activity of wells with stressor but without compound. The amount of caspase activity in the latter wells was normalized to 1 and used as reference. Subsequently, caspase activity in the wells with stressor and varying concentrations of compound was calculated relative to the wells without compound. Plotting caspase activity vs the log 10 of the concentration of compound permitted calculation of the EC50 values for the compounds which typically lied between 0.0001 and 10 μM. Compounds with an EC50<10 μM were considered active.

M17_3SYN cells = assay: Paraquat-induced cytotoxicity (LDH) in α-synuclein over-expressing M17_3SYN neuroblastoma cells; type: cell-based; settings: Homo sapiens, Neuroblastoma cell, 48 h, 6 mM Paraquat, 2 days, LDH toxicity inhibition, read-out: SYN EC50
Text: A α-synuclein expression plasmid was constructed by subcloning the NcoI/XhoI fragment from 212T-SYN(WT) (Griffioen et al., Biochem Biophys Acta (2006) 1762(3):312-318) containing the cDNA of human wild type α-synuclein correspondingly into a standard mammalian expression vector pcDNA3.1 resulting in plasmid pcDNA3.1-SYNwt. Plasmids pcDNA3.1 and pcDNA3.1-SYNwt were transfected into human neuroblastoma cells (BE-M17; ATCC No. CRL-2267™) using lipofectamine reagent and subsequently, independent clonal cell lines with the plasmids stably integrated into the genome were selected by antibiotic resistance selection (Geneticin (G418)), resulting in cell lines M17.pcDNA3 and M17_3SYN. Overexpression of α-synuclein in the M17_3SYN cell line was confirmed by Western blot analysis.
Due to the high levels of α-synuclein, M17_3SYN cells were sensitive to paraquat, a well-known risk factor Parkinson's disease and of synuclein-dependent neuronal degeneration. Cytotoxicity of cells was measured by quantification of lactate dehydrogenase (LDH) levels. In dead cells, LDH leaked out of the cells into the medium due to a loss of plasma-membrane integrity.
Three days preceding the experiment, primary pre-cultures of M17.pcDNA3 (as possible control) and M17_3SYN cells were prepared, starting from a stock culture, at a density of 20.000-40.000 cells/cm2 in culture medium (Opti-MEM® Reduced Serum Medium with Phenol Red (Invitrogen, Cat. 31985-047) supplemented with 10% FCS, 1 mM sodium pyruvate, 1×NEAA, 500 μg/ml G418 and 0.5× antibiotic/antimycotic (ABAM)). 3 days later these primary pre-cultures were used as a starting point to make secondary pre-cultures at a density of 50.000-100.000 cells/cm^2. At the day of the experiment these secondary precultures were diluted to ˜0.5·10^6 cells/ml in detection medium (Opti-MEM® Reduced-Serum Medium without Phenol Red (Invitrogen, Cat. 11085-021) supplemented with 10% FCS, 1 mM sodium pyruvate, 1×NEAA, 500 μg/ml G418 and 0.5×ABAM) and 60 μL of this suspension was dispensed per well into a 96-well microtiter plate. After 3 hours of incubation at 37° C./5% CO2 an equal volume of detection medium containing a final concentration of 6 mM Paraquat was added and subsequently incubated for 2 days at 37° C./5% CO2. Then LDH activity was determined using the Promega Cytotox 96 Non-Radioactive cytotoxicity assay (Promega, Cat. G1780), according to the manufacturer's instructions. Cytotoxicity was defined as the ratio of LDH relative to the total LDH in the cells and supernatant.
The assay described above using the M17_3SYN cell line allowed screening compounds for their ability to decrease cytotoxicity in PQ-challenged cells. Compounds of the invention were tested for their ability to decrease toxicity at different concentrations, ranging from low non-effective concentrations to high effective concentrations. Afterwards, a dose-dependent inhibition curve was used to calculate the EC50. A compound was considered to be active in this test when it inhibited toxicity by more than 20% relative to untreated M17_3SYN cells at a concentration of […] or lower.

`COc1ccc(S(=O)(=O)N2CCC3(CC2)CN(C(=O)C(C)(C)c2ccccc2C)C3)cc1` [Cmpd020, 1-(7-((4-Methoxyphenyl)sulfonyl)-2,7-diazaspiro[3.5]nonan-2-yl)-2-methyl-2-(o-tolyl)propan-1-one] was tested, and the EC50 (INS-1E cells) was 43 nM and the EC50 (M17_3SYN cells) was 14.3 nM.

For `COc1ccc(S(=O)(=O)N2CCC3(CC2)CN(C(=O)Cc2ccccc2)C3)cc1` [Cmpd010, 1-(7-((4-Methoxyphenyl)sulfonyl)-2,7-diazaspiro[3.5]nonan-2-yl)-2-phenylethanone], the EC50 (INS-1E cells) was 178 nM.

With `O=S(=O)(c1ccc(OC(F)F)cc1)N1CCC2(CC1)CN(S(=O)(=O)c1ccc(F)cc1)C2` [Cmpd044, 7-((4-(Difluoromethoxy)phenyl)sulfonyl)-2-((4-fluorophenyl)sulfonyl)-2,7-diazaspiro[3.5]nonane] the EC50 (INS-1E cells) was 188 nM.

For `COc1ccc(S(=O)(=O)N2CCC3(CC2)CN(S(=O)(=O)c2ccc(OC)cc2)C3)cc1` [Cmpd001, 2,7-Bis((4-methoxyphenyl)sulfonyl)-2,7-diazaspiro[3.5]nonane], the EC50 (INS-1E cells) was 201 nM and the EC50 (M17_3SYN cells) was 1.1 nM.

`COc1ccc(S(=O)(=O)N2CCC3(CC2)CN(C(=O)[C@H](c2ccc(F)cc2)C(C)C)C3)cc1` [Cmpd022, (S)-2-(4-fluorophenyl)-1-(7-((4-methoxyphenyl)sulfonyl)-2,7-diazaspiro[3.5]nonan-2-yl)-3-methylbutan-1-one] showed an EC50 (INS-1E cells) of 108 nM and an EC50 (M17_3SYN cells) of 28.7 nM.

`COc1ccc(S(=O)(=O)N2CC3(CCN(S(=O)(=O)c4ccc(Cl)cc4)CC3)C2)cc1` [Cmpd047, 7-((4-Chlorophenyl)sulfonyl)-2-((4-methoxyphenyl)sulfonyl)-2,7-diazaspiro[3.5]nonane] gave an EC50 (INS-1E cells) of 14 nM.

Work on `O=S(=O)(c1ccc(Cl)cc1)N1CCC2(CC1)CN(S(=O)(=O)c1ccc(OC(F)F)cc1)C2` [Cmpd050, 7-((4-Chlorophenyl)sulfonyl)-2-((4-(difluoromethoxy)phenyl)sulfonyl)-2,7-diazaspiro[3.5]nonane] yielded an EC50 (INS-1E cells) of 103 nM.

`COc1ccc(S(=O)(=O)N2CCC3(CC2)CN(c2nc(-c4cnccn4)ns2)C3)cc1` [Cmpd038, 5-(7-((4-Methoxyphenyl)sulfonyl)-2,7-diazaspiro[3.5]nonan-2-yl)-3-(pyrazin-2-yl)-1,2,4-thiadiazole] showed an EC50 (INS-1E cells) of 317 nM.

`COc1ccc(S(=O)(=O)N2CCC3(CC2)CN(S(=O)(=O)c2ccc(OC(F)F)cc2)C3)cc1` [Cmpd003, 2-((4-(Difluoromethoxy)phenyl)sulfonyl)-7-((4-methoxyphenyl)sulfonyl)-2,7-diazaspiro[3.5]nonane] gave an EC50 (INS-1E cells) of 40 nM.

`COc1ccc(S(=O)(=O)N2CCC3(CC2)CN(C(=O)Cc2ccc(F)cc2)C3)cc1` [Cmpd006, 2-(4-Fluorophenyl)-1-(7-((4-methoxyphenyl)sulfonyl)-2,7-diazaspiro[3.5]nonan-2-yl)ethanone] was tested, and the EC50 (INS-1E cells) was 178 nM.

`O=S(=O)(c1ccc(OC(F)F)cc1)N1CCC2(CC1)CN(S(=O)(=O)c1ccc(Cl)cc1)C2` [Cmpd043, 2-((4-Chlorophenyl)sulfonyl)-7-((4-(difluoromethoxy)phenyl)sulfonyl)-2,7-diazaspiro[3.5]nonane] was tested, and the EC50 (INS-1E cells) was 86 nM.

In the case of `O=S(=O)(c1ccc(F)cc1)N1CCC2(CC1)CN(S(=O)(=O)c1ccc(OC(F)F)cc1)C2` [Cmpd051, 2-((4-(Difluoromethoxy)phenyl)sulfonyl)-7-((4-fluorophenyl)sulfonyl)-2,7-diazaspiro[3.5]nonane], the EC50 (INS-1E cells) is reported as 33 nM.

For `CCOc1ccc(S(=O)(=O)N2CC3(CCN(S(=O)(=O)c4ccc(OC(F)F)cc4)CC3)C2)cc1` [Cmpd042, 7-((4-(Difluoromethoxy)phenyl)sulfonyl)-2-((4-ethoxyphenyl)sulfonyl)-2,7-diazaspiro[3.5]nonane], the EC50 (INS-1E cells) was 41 nM.

In the case of `COc1ccc(S(=O)(=O)N2CCC3(CC2)CN(c2nc(-c4ccc(Cl)cc4)ns2)C3)cc1` [Cmpd039, 3-(4-Chlorophenyl)-5-(7-((4-methoxyphenyl)sulfonyl)-2,7-diazaspiro[3.5]nonan-2-yl)-1,2,4-thiadiazole], the EC50 (INS-1E cells) is reported as 100 nM.

With `CCOc1ccc(S(=O)(=O)N2CCC3(CC2)CN(S(=O)(=O)c2ccc(OC(F)F)cc2)C3)cc1` [Cmpd049, 2-((4-(Difluoromethoxy)phenyl)sulfonyl)-7-((4-ethoxyphenyl)sulfonyl)-2,7-diazaspiro[3.5]nonane] the EC50 (INS-1E cells) was 90 nM.

With `CSc1ccc(S(=O)(=O)N2CCC3(CC2)CN(c2nc4ccc(Cl)cc4s2)C3)cc1` [Cmpd055, 6-Chloro-2-(7-((4-(methylthio)phenyl)sulfonyl)-2,7-diazaspiro[3.5]nonan-2-yl)benzo[d]thiazole] the EC50 (M17_3SYN cells) was 334 nM.

In the case of `CCc1ccc(S(=O)(=O)N2CCC3(CC2)CN(c2nc(Cc4ccc(F)cc4)ns2)C3)cc1` [Cmpd068, 5-(7-((4-Ethylphenyl)sulfonyl)-2,7-diazaspiro[3.5]nonan-2-yl)-3-(4-fluorobenzyl)-1,2,4-thiadiazole], the EC50 (M17_3SYN cells) is reported as 399 nM.

For `COc1ccc(S(=O)(=O)N2CCC3(CC2)CN(C(=O)C2CCOc4ccccc42)C3)cc1` (centres unmarked) [Cmpd021, Chroman-4-yl(7-((4-methoxyphenyl)sulfonyl)-2,7-diazaspiro[3.5]nonan-2-yl)methanone], the EC50 (INS-1E cells) was 503 nM.

For `COc1ccc(C)cc1S(=O)(=O)N1CCC2(CC1)CN(c1nc(Cc3ccc(F)cc3)ns1)C2` [Cmpd062, 3-(4-Fluorobenzyl)-5-(7-((2-methoxy-5-methylphenyl)sulfonyl)-2,7-diazaspiro[3.5]nonan-2-yl)-1,2,4-thiadiazole], the EC50 (M17_3SYN cells) was 342 nM.

Work on `CCOc1ccc(S(=O)(=O)N2CCC3(CC2)CN(S(=O)(=O)c2ccc(OC)cc2)C3)cc1` [Cmpd046, 7-((4-Ethoxyphenyl)sulfonyl)-2-((4-methoxyphenyl)sulfonyl)-2,7-diazaspiro[3.5]nonane] yielded an EC50 (M17_3SYN cells) of 3.3 nM.

Work on `COc1ccc(S(=O)(=O)N2CCC3(CC2)CN(C(=O)C(C)(C)c2ccccc2)C3)cc1` [Cmpd013, 1-(7-((4-Methoxyphenyl)sulfonyl)-2,7-diazaspiro[3.5]nonan-2-yl)-2-methyl-2-phenylpropan-1-one] yielded an EC50 (M17_3SYN cells) of 44.4 nM.

For `O=S(=O)(c1ccc(OC(F)F)cc1)N1CCC2(CC1)CN(S(=O)(=O)c1ccc(OC(F)F)cc1)C2` [Cmpd048, 2,7-Bis((4-(difluoromethoxy)phenyl)sulfonyl)-2,7-diazaspiro[3.5]nonane], the EC50 (INS-1E cells) was 61 nM.

In the case of `COc1ccc(S(=O)(=O)N2CCC3(CC2)CN(C(=O)C(C)(C)c2cccc(OC)c2)C3)cc1` [Cmpd016, 2-(3-Methoxyphenyl)-1-(7-((4-methoxyphenyl)sulfonyl)-2,7-diazaspiro[3.5]nonan-2-yl)-2-methylpropan-1-one], the EC50 (M17_3SYN cells) is reported as 29.3 nM.
